# Laboratory results published in patent US4476120A, “Thiolic derivatives of erythromycin having therapeutic activity, and pharmaceutical compositions containing them” (Sigma Tau Indistrie Farmaceutiche Riunites, p.A, priority 1982, dated 1984).
# Counter-ions that a name gives are not always drawn.
# What was measured:
# [1] = Acute toxicity; format: in vivo; settings: mouse, in vivo, iv; mortality 10 days after treatment; mice; read-out: LD50 (reliability limits)
# Procedure: The acute toxicity was assessed in Swiss white mice by oral and intravenous route. The LD50 values have been calculated by the methods of Probits, starting from the mortality recorded 10 days after the treatment.
# [2] = Mucolytic activity: obstruction of the bronchial tract after SO2 inhalation; format: in vivo, Sprague Dawley male rats; settings: i.m., 250 mg/kg; SO2, 15 days
# [3] = Histological examination of bronchi after SO2 inhalation; format: in vivo, Sprague Dawley male rats; settings: i.m., 250 mg/kg
# [4] = tested on: D. pneumoniae SS 23; experiment: Experimental infection induced by D. pneumoniae SS 23; format: in vivo, Swiss white mice; settings: Streptococcus pneumoniae, SS23, in Mus musculus, sc, 168 h, read-out: ED50 (reliability limits)
# Procedure: (§1) Swiss white mice of 20 g body weight were used, infected by parenteral administration of lethal amounts of pathogenic […] of Staph. aureus SS 07 and D. pneumoniae SS 23.
# (§2) The antibiotics were administered at the time of injecting the infecting germ and 6 and 24 hours later. On the basis of the survival after 7 days, the ED50 values were determined, as reported in the following table II and III, wherein the reliability limits are indicated in brackets.
# [5] = tested on: Staph. aureus SS 07; experiment: Experimental infection induced by Staph. aureus SS 07; format: in vivo, Swiss white mice; settings: Staphylococcus aureus, SS07, in Mus musculus, sc, 168 h, read-out: ED50 (reliability limits)
# Procedure: as §1, §2
SMILES,LD50 at 240 h [1] [mg/kg],Partial obstruction (% incidence) [2] [%],"Total obstruction, compact plug (% incidence) [2] [%]","Total obstruction, nodular mass (% incidence) [2] [%]","Total obstruction, pimply mass (% incidence) [2] [%]",bronchial epithelium reaction [3],histological appearance of obstructed bronchial tract ([3]; obstructed),ED50 [4] [mg/kg],ED50 [5] [mg/kg]
"CC[C@H]1OC(=O)[C@H](C)[C@@H](O[C@H]2C[C@@](C)(OC)[C@@H](O)[C@H](C)O2)[C@H](C)[C@@H](O[C@@H]2O[C@H](C)C[C@H](N(C)C)[C@H]2O)[C@](C)(O)C[C@@H](C)C(=O)[C@H](C)[C@@H](O)[C@]1(C)O [erythromycin hydrochloride, reference compound]",377,–,–,–,–,–,–,–,–
"CCOC(=O)CCC(=O)O[C@H]1[C@H](O[C@@H]2[C@@H](C)[C@H](O[C@H]3C[C@@](C)(OC)[C@@H](O)[C@H](C)O3)[C@@H](C)C(=O)O[C@H](CC)[C@@](C)(O)[C@H](O)[C@@H](C)C(=O)[C@H](C)C[C@@]2(C)O)O[C@H](C)C[C@@H]1N(C)C [erythromycin ethyl succinate, reference compound]",–,20,53.33,26.66,13.33,"the bronchial epithelium reacts through a proliferation of cells, mainly cup-shaped cells",the bronchial obstruction is formed by abundant mucus admixed with fibrin,54.2,1.03
